In patent US8466311B2, “Neuroprotective compositions and methods” (Sanford-Burnham Medical Research Institute, priority 2006, dated 2013):

Experiments:
Keap1 = target: T1, Keap1 (Mus musculus, UniProt Q9Z2X8); experiment: Binding of CAB/CA to Keap1 and Keap1 deletion mutants (streptavidin precipitation); conditions: PC12h cells transfected with Keap1 (non-HA-tagged)
T1 construct: expressed in transfected cells; host or cells: COS7 cells
Method: (3) Expression vectors for HA-tagged Keap1 and Keap1 deletion mutants. These constructs were obtained from Dr. Akira Kobayashi of Tohoku University (Hosoya et al., J. Biol. Chem. 29:27244-27250, 2006; Kobayashi et al., Mol. Cell. Biol. 26:221-229, 2006).
Immunoprecipitation with agarose-immobilized streptavidin or antibody. PC12h cells (CAB- or vehicle-treated) were lysed in RIPA buffer supplemented with protease inhibitor cocktail. The lysates were centrifuged at 15,000 rpm for 10 min at 4° C., after which the supernatants were incubated with agarose-immobilized streptavidin at 4° C. for 1 h. Alternatively, for immunoprecipitation with anti-Keap1, the cell lysates were incubated with the antibody at 4° C. overnight, after which protein A immobilized on Sepharose CL-4B was added and incubation continued at 4° C. for 1 h. Then, the complexes were washed three times with rinse buffer (150 mM NaCl, 50 mM Tris-HCl [pH 7.5], 0.1% NP-40, 1 mM EDTA, and 0.02% NaN3). SDS sample buffer was added, the mixture was boiled for 5 min, and the supernatants were subjected to SDS-PAGE. Immunoblotting was then performed as described above.
CA activates the Keap1/Nrf2/ARE pathway. […] The initial reaction in this activation cascade is the binding of an electrophilic compound to specific cysteines on Keap1 protein (Hong et al., Chem. Res. Toxicol. 18: 1917-1926, 2005; Eggler et al., Proc. Nat. Acad. Sci. USA 102:10070-10075, 2005; Zhang et al., Mol. Cell. Biol. 10941-10953, 2004). Such binding initiates a cellular transcription pathway leading to induction of phase 2 enzymes (Talalay, Biofactors 12:5-11, 2000; Padmanabham et al., Mol. Cell 21:689-700, 2006; Itoh et al., Free Radic. Biol. Med. 36:1208-1213, 2004). Therefore, we examined the domains of Keap1 (designated BTB, IVR, and DGR) to determine those essential for binding to CA. Accordingly, for co-immunoprecipitation experiments, we transfected COS7 cells with DNA expressing either HA-tagged wild type Keap1 protein (HA-WT Keap1) or various deletion mutants of tagged Keap1 protein (HA-ΔBTB Keap1, HA-ΔIVR Keap1, and HA-ΔDGR Keap1). The transfected COS7 cells were then treated with vehicle or 10 μM CAB and lysed. We quantified the expression level of Keap1 protein in total cell lysates with anti-HA antibody. Each Keap1 mutant protein was expressed at a similar level of the predicted molecular weight (57 kDa for HA-ΔBTB Keap1, 53 kDa for HA-ΔIVR Keap1, and 37 kDa for HA-ΔDGR Keap1). Next, in order to detect Keap1/CAB complexes, we immunoprecipitated cell lysates with streptavidin and probed with anti-HA antibody. […] The requirement of the BTB domain for CA binding is in accord with prior results (Hong et al., Chem. Res. Toxicol. 18:1917-1926, 2005; Eggler et al., Proc. Nat. Acad. Sci. USA 102:10070-10075, 2005; Zhang et al., Mol. Cell. Biol. 24:10941-10953, 2004).
After binding of the electrophilic quinone-form of CA to Keap1 protein, activation of the Keap1/Nrf2 pathway requires nuclear translocation of Nrf2 (Talalay, Biofactors 12:5-11, 2000; Padmanabham et al., Mol. Cell 21:689-700, 2006; Itoh et al., Free Radic. Biol. Med. 36:1208-1213, 2004). Thus, we next examined the intracellular distribution of Nrf2 protein in COS7 cells by immunofluorescence.

PC12h cells = experiment: Oxidative glutamate toxicity in PC12h cells (MTT assay); assay type: cell-based
Method: PC12h cells, PC12hW1B cells, and PC12hD5D cells (expressing Nrf2DN) were incubated with various concentrations of glutamate for 20 h. […] Various concentrations of CA were added to PC12, PC or PC12hD5D cells 1 h prior to exposure to 5 mM glutamate for 20 h.
PC12h and COST cell cultures.
Thus, we examined whether CA could protect PC12h cells from such insults. We prepared naïve PC12h cells, Nrf2WT-expressing PC12h cells (PC12hW1B), and Nrf2DN-expressing PC12h cells (PC12hD5D). In order to examine the effects of the Keap1/Nrf2 pathway on cell survival in the face of oxidative stress, we exposed the cells to a high concentration of glutamate. […] To visualize surviving and dead cells, we stained cultures with fluorescein diacetate (FDA) and propidium iodide (PI), respectively. Additionally, cell survival was quantified by the 3-(4,5-dimethylthiazol-2-yl)-2,5-diphenyl tetrazolium bromide (MTT) assay (FIG. 4A).
We next tested the hypothesis that CA-induced neuroprotection is mediated by the Keap1/NRf2 pathway.

NFAT-binding site = experiment: Enhancer element luciferase reporter p3xNFATluc; assay type: cell-based; conditions: NEPP11 2 μM
Method: Because the E1 and E2 regions also contain other enhancer elements, we tested the effects of NEPP11 (2 μM) on the expression of luciferase activity derived from these elements, including the cAMP-responsive element (CRE; p3xCREluc), AP-1 binding site (p3xAP1luc), NF-κB binding site (p3xNF-κBluc), NFAT-binding site (p3xNFATluc), ETS-binding site (p3xETSluc), and MEF2-binding site (p3xMEF2luc).

ARE probe = experiment: EMSA with biotin-labeled ARE probe, HT22 nuclear lysates; assay type: cell-based; conditions: HT22 cells, NEPP11 1 μM, 8 h
Method: Electrophoretic mobility shift assays (EMSAs). Double-stranded antioxidant-responsive elements (AREs) were labeled by using a biotin 3′-end DNA labeling kit (Pierce). Nuclear lysates were incubated with the labeled probe for 20 min at room temperature, resolved on an 8% native polyacrylamide gel, and transferred to Hybond-N^+ (Amersham Pharmacia). Signals were visualized with peroxidase-conjugated streptavidin (Pierce).
To confirm that NEPP11 leads to an increase in transcription factors, including Nrf2, that bind to the ARE, we performed EMSAs. HT22 cells were incubated for 8 h with vehicle or NEPP11 (1 μM). EMSAs were performed by using 10 μg of nuclear lysates per lane and a biotin-labeled ARE probe. In one lane, anti-Nrf2 antibody (100×) was added to supershift Nrf2 protein binding to ARE probe. In another lane, an excess amount of non-labeled probe was added to the sample to compete out the labeled ARE probe from binding to proteins in the nuclear lysates. […] The band representing the labeled ARE probe was shifted in the presence of control lysates, indicating binding of endogenous transcription factors to the ARE. […] In contrast, the band was totally abrogated in the presence of excess unlabeled probe. […]

T1 sequence (Q9Z2X8 whole entry): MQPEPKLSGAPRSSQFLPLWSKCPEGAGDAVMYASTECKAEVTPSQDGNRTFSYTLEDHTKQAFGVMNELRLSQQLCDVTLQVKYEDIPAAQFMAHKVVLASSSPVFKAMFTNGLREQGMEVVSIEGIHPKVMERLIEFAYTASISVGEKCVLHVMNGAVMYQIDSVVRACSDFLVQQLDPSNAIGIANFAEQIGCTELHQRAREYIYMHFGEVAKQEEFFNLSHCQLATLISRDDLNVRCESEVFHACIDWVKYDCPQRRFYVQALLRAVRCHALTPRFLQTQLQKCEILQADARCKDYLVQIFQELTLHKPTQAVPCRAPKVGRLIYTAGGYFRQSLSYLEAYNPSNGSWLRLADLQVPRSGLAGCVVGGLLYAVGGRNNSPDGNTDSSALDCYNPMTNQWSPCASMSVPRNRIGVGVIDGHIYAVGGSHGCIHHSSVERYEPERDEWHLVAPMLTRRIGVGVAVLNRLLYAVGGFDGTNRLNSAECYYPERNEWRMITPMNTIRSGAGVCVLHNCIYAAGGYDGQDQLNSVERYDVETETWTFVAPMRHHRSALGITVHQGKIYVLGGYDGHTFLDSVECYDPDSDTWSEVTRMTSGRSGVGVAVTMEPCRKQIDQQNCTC

| SMILES | complex formation with Keap1 (Keap1) | protective effects in PC12hD5D cells (Nrf2DN) (PC12h cells; CA) | concentrations protecting PC12h cells against oxidative glutamate toxicity (PC12h cells; dose-dependent, 5 mM glutamate 20 h, CA 1 h prior) [µM] | activity of p3xNFATluc (NFAT-binding site) | shifted ARE probe band intensity (ARE probe) |
| --- | --- | --- | --- | --- | --- |
| CC(C)c1cc2c(c(O)c1O)[C@@]1(C(=O)O)CCCC(C)(C)[C@@H]1CC2 [CA, carnosic acid] | formed CA/Keap1 complexes | significantly suppressed | 0.1 to 1 | – | – |
| COC(=O)CCCCC/C=C1/C(=O)C=C[C@H]1CCCCCCc1ccc(C)cc1 [NEPP11] | – | – | – | slightly depressed | significant increase in the intensity of this band |
